We go through 4 molecules from article PMC12554172, “Systematic analysis of the RGS2 degron reveals characteristics of substrate recognition by the F-box protein FBXO44” (The Journal of Biological Chemistry, 2025).

Peptide text beside a SMILES is read from it.

Series [1] addresses T1, FBXO44^FBA (Homo sapiens, UniProt Q9H4M3).
T1 construct: we expressed and purified only this domain for all in vitro studies; 6xHis (N, cleaved yes); MBP (N, cleaved yes); made in house; host or cells: Escherichia coli Rosetta BL21 (λDE3)
T1 sequence (Q9H4M3 71-252 limits assumed): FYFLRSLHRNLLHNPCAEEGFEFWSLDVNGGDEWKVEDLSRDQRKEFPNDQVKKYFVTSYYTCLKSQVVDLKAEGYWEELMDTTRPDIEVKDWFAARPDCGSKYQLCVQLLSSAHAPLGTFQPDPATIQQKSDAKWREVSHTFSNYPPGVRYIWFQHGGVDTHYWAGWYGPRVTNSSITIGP
As to the kind of experiment: Surface plasmon resonance, immobilized RGS2^5–16 peptide. The conditions noted are these: Biacore X100; peptide immobilized on CM5 chip by amine coupling; FBXO44^FBA analyte 0.29–75 μM, contact time 60 s; nonlinear fit of saturation binding; preliminary. An excerpt:
(§1) However, evidence of a direct interaction between RGS2 and FBXO44 has, until now, not yet been established. Thus, we first aimed to verify that purified FBXO44 would bind the degron sequence in vitro. […] This also circumvented the issue that full-length FBXO44 (as well as all other F-box proteins) is very difficult to express in the absence of an adaptor protein, such as Skp1 ([30]). To test the ability of the FBA domain to bind the RGS2 degron specifically, a peptide corresponding to residues Met^5–Met^16 (MFLAVQHDRCPM; herein referred to as RGS2^5–16; Fig. 1A) was dotted onto a polyvinylidene difluoride (PVDF) membrane at increasing amounts (Fig. 1B). […] The membrane was then incubated with FLAG-tagged FBXO44 FBA domain (FBXO44^FBA) and subjected to immunoblotting using a FLAG antibody. […] To get an estimate of the binding affinity between FBXO44^FBA, we next performed surface plasmon resonance (SPR) with the RGS2^5–16 peptide anchored on the chip and FBXO44^FBA as the analyte.
RGS2^5–16 peptide was immobilized onto a CM5 chip (Cytiva; BR100012) using amine coupling (Cytiva; BR100557) following the manufacturer's protocol. RGS2^5–16 peptide (150 μg/ml) in 10 mM NaOAc, pH 4.0, was loaded into the Biacore X100 sample rack. […] The RU at equilibrium was subtracted from the nonspecific binding detected in Fc1 and measured for each concentration. […]
Background: In SPR one partner is held on a chip, and binding of the other changes the refractive index at the surface.

The conditions of series [2]: treatment of certain blood cancers; background statement; cited from earlier work. An excerpt: RGS2 is rapidly and constitutively degraded by the ubiquitin–proteasomal system ([12], [13]). Dysfunction of this crucial system can lead to accumulation of misfolded or aged proteins, cell cycle arrest, and uncontrolled cell proliferation ([14], [15], [16], [17]), driving various pathologies, including multiple cancers and cardiovascular disease ([18], [19]). Proteasome inhibitors, such as bortezomib (Velcade) and carfilzomib, are used in the treatment of certain blood cancers ([20], [21]). However, the severe side effects associated with these drugs, including neuropathies, fatigue, and anem ...

Series [3] deals with T1, FBXO44^FBA. As to the kind of experiment: Dot blot of FLAG-FBXO44^FBA binding to immobilized peptide. The conditions noted are these: peptide spotted on PVDF at increasing amounts; 2 μg/ml FLAG-FBXO44^FBA overnight at 4 °C; anti-FLAG.
Excerpt: as §1
Figure 1 A peptide representing the degron in RGS2 binds FBXO44^FBAin vitro.A, sequence and schematic of the RGS2^5–16 peptide. B, a representative dot blot showing binding of FBXO44^FBA to immobilized RGS2^5–16 peptide. […] The RU at equilibrium was subtracted from the nonspecific binding detected in Fc1 and measured for each concentration. […]

For the molecule `CSCC[C@H](NC(=O)[C@@H]1CCCN1C(=O)[C@H](CCCNC(=N)N)NC(=O)[C@H](CS)NC(=O)[C@H](CC(=O)O)NC(=O)[C@H](Cc1c[nH]cn1)NC(=O)[C@H](CCC(N)=O)NC(=O)[C@@H](NC(=O)[C@H](C)NC(=O)[C@H](CC(C)C)NC(=O)[C@H](Cc1ccccc1)NC(=O)[C@@H](N)CCSC)C(C)C)C(=O)O` [RGS2^5–16] (H-MFLAVQHDCRPM-OH), binding in series [1] was characterised by a dissociation constant (Kd) of 2090 nM.

Turning to `CC(C)C[C@H](NC(=O)[C@H](Cc1ccccc1)NC(=O)c1cnccn1)B(O)O` [bortezomib], the severe side effects entry in series [2] is “neuropathies, fatigue, and anemia”.

`CC(C)C[C@H](NC(=O)[C@H](CCc1ccccc1)NC(=O)CN1CCOCC1)C(=O)N[C@@H](Cc1ccccc1)C(=O)N[C@@H](CC(C)C)C(=O)[C@@]1(C)CO1` [carfilzomib]: in series [2], the severe side effects entry is “neuropathies, fatigue, and anemia”.

As to “MCKGLAALPAT [RGS4^1–11, peptide corresponding to the first 11 residues in RGS4, negative control]”, in series [3], the “FLAG immunoreactivity (FBXO44^FBA binding)” value was “no signal detected”.
